Measured values: patent US20090105234A1, “EP4 Receptor Agonist, Compositions and Methods Thereof” (priority 2005, published 2009)

Key:
[1] = Eye closure after ocular dosing; assay type: in vivo, New Zealand White rabbits; conditions: versus Example 2 of WO 2004/085430
[2] = Ocular tolerability in animal species compared to compounds of WO 2004/085430; assay type: in vivo; conditions: compared to compounds disclosed in WO 2004/085430 (i.e., Example 2)
[3] = Ocular adverse effects (conjuctival hyperemia, partial eye closure, etc.); assay type: in vivo, Cynomolgus Monkeys; conditions: versus Example 2 of WO 2004/085430
[4] = Vehicle panel-controlled 5 day ocular tolerability study (topical, bilateral, b.i.d); assay type: in vivo, Dutch-Belted rabbits; conditions: 5 days, 2.2 μM (25 μL) ophthalmic solution
EP2 mRNA in bone tissue = assay: EP2 mRNA in vivo in bone tissue after systemic PGE2; conditions: rats, systemic administration
Method: (§1) For mRNA localization experiments, 5-week old Sprague-Dawley rats (Charles River) are euthanized by CO2, their tibiae and calvariae are excised, cleaned of soft tissues and frozen immediately in liquid nitrogen. For EP4 regulation experiments, 6-week old rats are given a single injection of either vehicle (7% ethanol in sterile water) or an anabolic dose of PGE2 (Cayman Chemical, Ann Arbor, Mich.), 3-6 mg/kg in the same vehicle) intraperitoneally. Animals are euthanized at several time points post-injection and their tibiae and calvariae, as well as samples from lung and kidney tissues are frozen in liquid nitrogen.
Total RNA is extracted from the tibial metaphysis or diaphysis and calvaria using a guanidinium isothiocyanate-phenol-chloroform method after pulverizing frozen bone samples by a tissue homogenizer. See P. Chomczynski et al., Single-step method of RNA isolation by acid guanidium thiocyanate-phenol-chloroform extraction., Analyt Biochem, 162, 156-159 (1987), which is incorporated by reference herein in its entirety. RNA samples ([…]) are separated on 0.9% agarose/formaldehyde gels and transferred onto nylon membranes (Boehringer Mannheim, Germany). […]

TRAB-11 cells = assay: Intracellular cAMP in osteoblastic cells; assay type: cell-based, rat
Method: (§2) RCT-1 and RCT-3 are clonal cell lines immortalized by SV40 large T antigen from cells released from fetal rat calvair by a cmbination collagenase/hyaluronidase digestion. RCT-1 cells, derived from cells released during the first 10 minutes of digestion (fraction I), are cultured in RPMI 1640 medium (BRL) with 10% fetal bovine serum and 0.4 mg/ml G418 (BRL). These cells differentiate and express osteoblastic features upon retinoic acid treatment. RCT-3 cells, immortalized from osteoblast-enriched fraction III cells, are cultured in F-12 medium (BRL) with 5% Fetal bovine serum and 0.4 mg/ml G418. TRAB-11 cells are also immortalized by SV40 large T antigen from adult rat tibia and are cultured in RPMI 1640 medium with 10% FBS and 0.4 mg/ml G418. ROS 17/2.8 rat osteosarcoma cells are cultured in F-12 containing 5% FBS. Osteoblast-enriched (fraction III) primary fetal rat calvaria cells are obtained by collagenase/hyaluronidase digestion of calvariae of 19 day-old rat fetuses. See Rodan et al., Growth stimulation of rat calvaria osieoblastic cells by acidic FGF, Endocrinology, 121, 1919-1923 (1987), which is incorporated by reference herein in its entirety. Cells are released during 30-50 minutes digestion (fraction III) and are cultured in F-12 medium containing 5% FBS. […]

RCT-3 cells = assay: Intracellular cAMP in osteoblastic cells; assay type: cell-based, rat
Method: as §2

ROS 17/2.8 cells = assay: Intracellular cAMP in osteoblastic cells; assay type: cell-based; conditions: ROS 17/2.8 rat osteosarcoma cells
Method: as §2

EP2 mRNA in RP-1 cells = assay: EP2 mRNA expression (Northern blot) in RP-1 cells; assay type: cell-based, rat
Method: (§3) RP-1 periosteal cells are spontaneously immortalized from primary cultures of periosteal cells from tibae of 4-week old Sprague-Dawley rats and are cultured in DMEM (BRL, Gaithersburg, Md.) with 10% fetal bovine serum (JRH Biosciences, Lenexa, Kans.).
(§4) Total RNA is extracted from the tibial metaphysis or diaphysis and calvaria using a guanidinium isothiocyanate-phenol-chloroform method after pulverizing frozen bone samples by a tissue homogenizer. See P. Chomczynski et al., Single-step method of RNA isolation by acid guanidium thiocyanate-phenol-chloroform extraction., Analyt Biochem, 162, 156-159 (1987), which is incorporated by reference herein in its entirety. RNA samples ([…]) are separated on 0.9% agarose/formaldehyde gels and transferred onto nylon membranes (Boehringer Mannheim, Germany). Membranes are prehybridized in Hybrisol I (Oncor, Gaithersburg, Md.) and 0.5 mg/ml sonicated salmon sperm DNA (Boehringer) at 42° C. for 3 hours and are hybridized at 42° C. with rat EP2 and mouse EP4 cDNA probes labeled with [^32P]-dCTP (Amersham, Buckinghamshire, UK) by random priming using the rediprime kit (Amersham). After hybridization, membranes are washed 4 times in 2×SSC+0.1% SDS at room temperature for a total of 1 hour and once with 0.2×SSC+0.1% SDS at 55° C. for 1 hour and then exposed to Kodak XAR 2 film at −70° C. using intensifying screens. […]

[5] = test system: EP4 mRNA in RP-1 periosteal cells; assay: EP4 mRNA levels (Northern blot) in RP-1 periosteal cells; assay type: cell-based, rat; conditions: 10^−6 M
Method: as §3, §4

EP4 mRNA in bone tissue = assay: EP4 mRNA levels in vivo in bone tissue after systemic PGE2; conditions: five-week-old male rats, injected 3-6 mg/Kg
Excerpt: For mRNA localization experiments, 5-week old Sprague-Dawley rats (Charles River) are euthanized by CO2, their tibiae and calvariae are excised, cleaned of soft tissues and frozen immediately in liquid nitrogen. […] Animals are euthanized at several time points post-injection and their tibiae and calvariae, as well as samples from lung and kidney tissues are frozen in liquid nitrogen.
as §4, with “(Amersham).” for “(Amersham). After hybridization, membranes are washed 4 times in 2×SSC+0.1% SDS at room temperature for a total of 1 hour and once with 0.2×SSC+0.1% SDS at 55° C. for 1 hour and then exposed to Kodak XAR 2 film at −70° C. using intensifying screens.”

[6] = test system: EP4 mRNA in bone marrow cells; assay: In situ hybridization, localization of EP4 expression in bone; assay type: in vivo; conditions: single anabolic dose, versus vehicle-injected rats
Method: as §1
Frozen tibiae are sectioned coronally at […] thickness and sections are mounted on charged slides (Probe On Plus, Fisher Scientific, Springfield, N.J.) and are kept at −70° C. until hybridization. cRNA probes are labeled with ^35S-UTPgS (ICN, Costa Mesa, Calif.) using a Riboprobe II kit (Promega Madison, Wis.). Hybridization is performed overnight at 50° C. See M. Weinreb et al., Different pattern of alkaline phosphalase, osteopontin and osteocalcin expression in developing rat bone visualized by in-situ hybridization, J. Bone Miner Res., 5, 83′-842 (1990) and D. Shinar et al., Expression of alphav and beta3 integrin subunits in rat osteoclasts in situ, J. Bone Miner. Res., 8, 403-414 (1993), which are both incorporated by reference herein in their entirety. […]

EP4 mRNA in RCT-3 cells = assay: EP4 mRNA levels (Northern blot) in RCT-3 cells; assay type: cell-based, rat
Method: as §2

Row | Structure (SMILES) | improvement in eye closure [1] [fold] | ocular tolerability [2] | improvement in ocular adverse effects (conjuctival hyperemia, partial eye closure, etc.) [3] | drug treatment related findings [4] | induction of EP2 mRNA in bone tissue (EP2 mRNA in bone tissue) | effect on intracellular cAMP (TRAB-11 cells) | effect on intracellular cAMP (RCT-3 cells) | effect on intracellular cAMP (ROS 17/2.8 cells) | EP2 mRNA expression before or after treatment (EP2 mRNA in RP-1 cells) | effect on EP4 mRNA levels [5] | time of peak EP4 mRNA levels after treatment [5] [h] | effect on EP4 mRNA levels in the tibial diaphysis (EP4 mRNA in bone tissue) | time of peak EP4 mRNA levels in the tibial diaphysis after injection (EP4 mRNA in bone tissue) [h] | expression of EP4 in bone marrow cells [6] | effect on EP4 mRNA levels (EP4 mRNA in RCT-3 cells)
1 | CC(C)OC(=O)c1ccc(CCCN2C(=O)OCC[C@@H]2/C=C/[C@@H](O)C(F)(F)c2cccc(Br)c2)s1 [Example 1, Isopropyl 5-(3-{(4R)-4-[(1E,3R)-4-(3-bromophenyl)-4,4-difluoro-3-hydroxybut-1-en-1-yl]-2-oxo-1,3-oxazinan-3-yl}propyl)thiophene-2-carboxylate] | 5 | improved ocular tolerability | 3-5 fold | no drug treatment related findings | – | – | – | – | – | – | – | – | – | – | –
2 | CCCCC[C@H](O)/C=C/[C@H]1[C@H](O)CC(=O)[C@@H]1C/C=C\CCCC(=O)O [PGE2] | – | – | – | – | does not induce EP2 mRNA | markedly induced | markedly induced | no effect | not expressed | rapidly increases EP4 mRNA levels | 2 | rapidly increased EP4 mRNA levels | 2 | increased the expression of EP4 | no effect on EP4 mRNA levels
